Assay results as given in publication PMC11267565, “Glutathione-Based Photoaffinity Probe Identifies Caffeine as a Positive Allosteric Modulator of the Calcium-Sensing Receptor” (ACS Chemical Biology, 2024).

Assays:
[1] = molecular target: T1, calcium-sensing receptor (CaSR) (Homo sapiens, UniProt P41180); experiment: concentration-dependent competition with DAZ-G photo-conjugation in cells; type: cell-based; parameters: FLAG-CaSR
T1 sequence (P41180 20-1078): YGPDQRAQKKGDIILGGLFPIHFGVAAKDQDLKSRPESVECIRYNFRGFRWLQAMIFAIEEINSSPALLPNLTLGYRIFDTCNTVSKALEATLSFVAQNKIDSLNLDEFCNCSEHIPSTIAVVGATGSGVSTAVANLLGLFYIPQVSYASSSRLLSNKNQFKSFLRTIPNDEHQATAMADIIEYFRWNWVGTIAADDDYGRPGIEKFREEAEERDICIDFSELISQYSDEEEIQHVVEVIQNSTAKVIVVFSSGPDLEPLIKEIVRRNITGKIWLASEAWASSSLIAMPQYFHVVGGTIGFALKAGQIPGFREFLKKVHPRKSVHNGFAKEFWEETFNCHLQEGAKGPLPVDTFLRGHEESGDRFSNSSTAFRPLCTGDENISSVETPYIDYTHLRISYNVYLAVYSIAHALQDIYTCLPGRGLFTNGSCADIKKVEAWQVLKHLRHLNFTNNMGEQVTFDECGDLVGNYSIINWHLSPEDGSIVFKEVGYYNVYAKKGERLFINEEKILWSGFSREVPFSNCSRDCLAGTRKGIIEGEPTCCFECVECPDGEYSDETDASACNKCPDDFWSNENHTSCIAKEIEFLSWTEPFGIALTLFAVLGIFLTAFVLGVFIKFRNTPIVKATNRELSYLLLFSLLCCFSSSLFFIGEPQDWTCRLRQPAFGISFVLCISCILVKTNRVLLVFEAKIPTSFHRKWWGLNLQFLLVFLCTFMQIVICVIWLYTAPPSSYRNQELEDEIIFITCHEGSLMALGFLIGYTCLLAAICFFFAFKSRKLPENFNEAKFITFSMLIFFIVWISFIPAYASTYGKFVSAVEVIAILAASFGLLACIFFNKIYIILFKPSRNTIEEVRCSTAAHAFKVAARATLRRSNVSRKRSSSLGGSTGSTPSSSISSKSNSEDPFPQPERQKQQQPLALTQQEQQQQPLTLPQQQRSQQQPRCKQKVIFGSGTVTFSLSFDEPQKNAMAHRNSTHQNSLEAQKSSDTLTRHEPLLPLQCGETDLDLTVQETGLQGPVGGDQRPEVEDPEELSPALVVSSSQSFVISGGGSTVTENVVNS

[2] = molecular target: T1, calcium-sensing receptor (CaSR); experiment: Cal-520 Ca2+ flux in HEK293-CaSR cells (EC50); competition with DAZ-G photo-conjugation; E837A and S170A mutants; type: cell-based

Compound | concentration-dependent competition with DAZ-G photo-conjugation in cells [1] | EC50 [2] [µM]
N[C@@H](Cc1ccccc1)C(=O)O [L-Phe] | L-Phe, a prototype ligand for ABS, induced concentration-dependent competition to DAZ-G | –
Cn1c(=O)c2c(ncn2C)n(C)c1=O [caffeine] | – | 3.35
